Results: patent publication US20190117634A1, “Treatment of Vulvodynia” (Gruenenthal GmbH, priority 2017, published 2019)

Assay: in vitro permeation/penetration in porcine vaginal tissue (Franz diffusion cell)
Type: in vitro ADME
Description: The permeation/penetration of the formulation according to Example 1 in porcine vaginal tissue was assessed by in vitro experiments.
The in vitro experiments involved the use of a Franz diffusion cell designed to mimic the physiological and anatomical conditions of porcine vaginal tissue in situ. Porcine vaginal tissue skin was positioned between the two halves of a Franz diffusion cell with the vaginal epithelium facing the donor compartment allowing for drug product application. The other side of the porcine vaginal tissue skin faced a receiver fluid comprising 2% w/v Tween 80 in 20% v/v PEG 400 in water.
Prior to dosing of the formulation on the tissue, the integrity of the tissue was assessed as follows: • (i) Porcine vaginal tissue was mounted between the donor and receiver compartments and the cells were sealed together using Parafilm®. • (ii) The donor and receiver chambers were filled with PBS solution and a small magnetic follower was placed in the receiver compartment. • (iii) Cells were equilibrated in a water bath, ensuring a membrane temperature of 32° C. for 30 min. • (iv) The electrodes of the ISO-TECH LCR821 Meter were placed in the receiver chamber through the sampling arm and the donor chamber and the LCR was set at 100 Hz and set to ‘R’ for resistance. • (v) The resistance of the tissue in each Franz cell was measured using a ISO-TECH LCR821 Meter (SOP 3174). Cells with a resistance below the acceptable limits were discarded and remounted.
Following the tissue integrity testing, the PBS solutions were removed from each compartment and the receiver compartments of cells passing the resistance criteria were filled with receiver fluid. Each cell was then equilibrated to ensure a surface temperature of 32° C. (external skin surface temperature) for at least 30 min prior to dosing. An additional Franz cell was also mounted but not dosed (to act as a blank) to assess interference with sample quantification.
A positive displacement pipette was used to apply 6-8 mg of the formulation of table 1 to the tissue surface. Prior to application the weight of each test formulation was verified by weighing the amount dispensed by the positive displacement pipette into an empty vial (n=6).
Receiver fluid (200 μL) was removed at the following time points t=0, 1, 2, 4, 6 and 24 h and transferred to a HPLC vial for analysis. Fresh pre-warmed (37° C.) receiver fluid was used to replace the receiver fluid removed at each time point. Following the 24 h time point, remaining receiver fluid was removed from the Franz cells and the drug was recovered. […]

[1] = formulation of Example 1, after 24 h, Franz cell

SMILES: CN(C)[C@]1(c2cccc(F)c2)CC[C@]2(CC1)c1[nH]c3ccccc3c1CCN2C(=O)/C=C/c1ccccc1 [pharmacologically active compound, cis-(E)-4-(3-fluorophenyl)-2′,3′,4′,9′-tetrahydro-N,N-dimethyl-2′-(1-oxo-3-phenyl-2-propenyl)-spiro[cyclohexane-1,1′[1H]-pyrido[3,4-b]indol]-4-amine]
- Mean recovery of the pharmacologically active compound from the epithelium of porcine vaginal tissue (formulation of Example 1 (2.60 wt.-% compound), 6-8 mg applied, after 24 h, Franz cell, 32° C.): 9.72 μg
- Mean recovery of the pharmacologically active compound from the epithelium of porcine vaginal tissue [1]: 810.21 μg/mL
- Total concentration presented to vaginal epithelium [1]: 1596.04 µM
- permeation into the epithelium of porcine vaginal tissue (in words) (formulation of Example 1, in vitro, 24 h): permeates into the epithelium of porcine vaginal tissue
